In series [1] the test system is CD95-treated Jurkat cells. In words: In-vitro screening: uptake of tritiated compounds into apoptotic Jurkat cells. It counts as cell-based. Particulars: tritiated compound, 30 minutes, 37° C., beta-counter; control untreated uptake set as 1. The procedure: Uptake was measured using beta counter. zVAD treated cells reversed the phenotype decreasing uptake to control values (set as 1) in all tested candidates. Shown are means±SD of three independent experiments performed in triplicates.
For in-vitro screening of the compounds of the invention, apoptosis-induction model in hematopoietic derived cancer cell line, Jurkat was used.
Jurkat cells were cultured in RPMI supplemented with 10% fetal bovine serum, 4 mM L-glutamine, 100 U/ml penicillin and 100 n/ml streptomycin in a humidified incubator at 37° C., 5% CO2. Cells were counted and re-suspended in hepes buffer saline (HBS).
Apoptosis induction: 10^7 cells/ml were incubated for two hours with 0.1 n/ml of anti-Fas (CD95) antibody. For apoptosis inhibition (specific control), induced and control cells were incubated with 50 μM of the specific caspase inhibitor, Zvad. 2 μl Ci of the tritiated compounds or ML-10 as reference, were added to the cells for 30 minutes. All incubations were performed at 37° C. After incubation with the tritiated compounds, cells were washed twice in HBS, transferred to scintillation liquid and radioactivity was monitored using beta-counter. The percentage of uptake was calculated using the standard DPM readings. […]

A short description of series [2]: Pharmacokinetic study of unlabeled (cold) analogs in CD1 mice. Particulars: for AUC(0-inf) / half-life / clearance / Vd: mouse, in vivo; for clearance: read-out: Total clearance (converted); for Vd: read-out: Vss; for Total clearance, percentage in brackets / Vss, percentage in brackets: reference of the percentage not explained. The class given is in vivo. An excerpt:
(§1) In order to determine the pharmacokinetics properties of APO-698, its unlabeled analog, APO-697 was used. Table-1 summarizes the pharmacokinetic study performed in CD1 mice for the two unlabeled (cold) analogs, ML-10 and APO-697.

The nature of series [3]: Blood partitioning (red blood cells/plasma). The conditions noted are these: mouse blood. It counts as in vitro ADME.
Description: as §1

For series [4], the system named is human colorectal cancer cells HCT-116 xenografts. Description: In-vivo screening: tumor/blood uptake ratio in HCT-116 xenografts. Details: species or system Athymic nude mice. The conditions noted are these: intravenous tritiated compound, HCT-116 xenograft, FIG. 2 (one and a half hours before samples collection). The method, then:
Athymic nude mice were inoculated with HCT-116 human colorectal cancer cells. Mice were subjected to intravenous injection of tritiated ML-10 and APO-650 one and a half hours before samples collection. Blood samples were taken before sacrificing the animals. Blood and tumor samples radioactivity was measured in a beta-counter.
In order to assess the in-vivo accumulation of ML-10 and compounds of the invention, the uptake into human colorectal cancer cells HCT-116 xenografts was monitored. Athymic nude mice were subcutaneously inoculated with […] HCT-116 cells. After the formation of tumors, ML-10 and APO-650 were intravenously administrated to the mice, 30 and 90 minutes before scarification (n≧8). Peripheral blood samples were collected prior to animals' scarification. Tumors were dissected, homogenized and all samples were calibrated in scintillation fluid before radioactivity was measured in a beta-counter. To inspect signal to noise ratio, the ratio of uptake into the tumor versus blood was calculated.

Series [5] in a line: Pharmacokinetic evaluation of tritiated candidates in naive and chemotherapy treated mice. Particulars: mouse, in vivo.
Description: as §1

As usually defined, the AUC(0-inf) is total exposure, with the tail of the curve extrapolated. High values mean high exposure, low ones low exposure. A word on the clearance: it is a measure of how efficiently the substance is removed, as volume per time.

In the case of `CC(CCCCC[18F])(c1nnn[nH]1)c1nnn[nH]1` [APO-600, 5,5′(7-^18fluoroheptane-2,2-diyl)bis(1H-tetrazole)], the “fold increase uptake of CD95-treated cells (uptake of the tracer into the apoptotic cells)” value in series [1] is “high uptake”.

On to `COc1cc2c(c(OC)c1OC)-c1ccc(OC)c(=O)cc1[C@@H](NC(=O)CCCCCC(C)(C(=O)O)C(=O)O)CC2` [APO-697, 2-methyl-2-(5-{[(10S)-3,4,5,14-tetramethoxy-13-oxotricyclo[9.5.0.0{2,7}]hexadeca-1(16),2,4,6,11,14-hexaen-10-yl]carbamoyl}pentyl)propanedioic acid], for which, in series [2] (unlabeled compound), the AUC(0-inf) stood at 5.16 ng·h/mL, the half-life was 7.92 min, the clearance was 64.7 mL/min/kg and the Vd was determined as 0.435 L/kg. Further, in series [2] (unlabeled compound), the Total clearance entry is on record as “higher”, the Vss entry is listed as “higher volume of distribution” and the t1/2 entry is on record as “shorter t1/2”. Further, in series [2], the “Total clearance, percentage in brackets” value is “(71.9%)” and the “Vss, percentage in brackets” value is reported as “(60.0%)”. Besides, the KRBC/PL in series [3] was 0.07.

Regarding `CN(CCCCC(C)(C(=O)O)C(=O)O)c1ncc([N+](=O)[O-])s1` [APO-650, 2-methyl-2-{4-[(5-nitro-1,3-thiazol-2-yl)tritritiummethylamino]butyl}propanedioic acid], the tumor/blood ratio result in series [4] is on record as “six-fold”. In series [5] (t1/2), this compound registered a half-life of 8 min.

For the compound `CC(CCCCCF)(C(=O)O)C(=O)O` [ML-10, (5-fluoropentyl)(methyl)propanedioic acid, reference compound], in series [2] (unlabeled compound), the AUC(0-inf) was 32.6 ng·h/mL, the half-life was 11.2 min, the clearance is 10.2 mL/min/kg and the Vd came to 0.152 L/kg. Moreover, in series [2], the “Total clearance, percentage in brackets” value is listed as “(11.4%)” and the “Vss, percentage in brackets” value is “(21.0%)”. In series [3], the KRBC/PL is 0.01. Also, the half-life in series [5] (Naive mice, tritiated, read-out: t1/2) is 10 min.

As for `O=C(O)c1ccc(CCC[18F])cc1C(=O)O` [APO-630, 4-(3-^18fluoropropyl)phthalic acid], the “fold increase uptake of CD95-treated cells (uptake of the tracer into the apoptotic cells)” value in series [1] is on record as “high uptake”. The same compound had a half-life in series [5] (t1/2) of 10 min.

The values are drawn from patent US20150064111A1, “NOVEL TARGETING AGENTS FOR DIAGNOSTIC AND THERAPEUTIC INDICATIONS” (APOSENSE LTD., priority 2012, published 2015).
